US20240336657A1, “G-ALPHA-S PEPTIDE INHIBITORS AND USES THEREOF” (The Regents of the University of California, priority 2021, published 2024)
Positions of bridges follow the written chain, without caps; N, C: chain ends. Non-standard residues stand in square brackets, D forms with d. Residues, ends and D or L forms follow the SMILES beside them.

Biological target: T1, Gαi1/Gβγ (Homo sapiens, UniProt P63096)
T1 construct: expressed in transfected cells; host or cells: HEK293 cells
Test: BRET2 based Gα Gβγ interaction assay in HEK293 cells (M2R, acetylcholine)
Format: cell-based
Settings: pretreated 25 μM, 16 hours, 100 nM acetylcholine
Excerpt: We next tested GD20-F10L in HEK 293 cells overexpressing both β2AR and Gαs/Gβγ. Rluc8 was inserted within a flexible loop region between the αB-αC helices of Gαs (FIG. 23J) and GFP2 was inserted at the N-terminus of Gγ2 to capture Gαβγ heterotrimer interaction. A decrease in the bioluminescence resonance energy transfer (BRET2) signal between labeled G protein subunits can detect Gαβγ dissociation (FIG. 21C) in live cells (Olsen et al., 2020). We examined Gαβγ trimer dissociation elicited by the GPCR agonist at various concentrations of cyclic peptides by monitoring the net BRET2 signal. In cells that were transiently transfected with a Gαs-coupled β2-adrenergic receptor (β2AR), GαsShort_Rluc8, […], and Gγ-GFP2, ISO application stimulated a basal net BRET response. […] This effect was GD20-F10L dose dependent (FIGS. 21D-21E). […] To assess the specificity of GD20-F10L at the G protein level, we tested it against the Gαi/Gβγ interaction. […]
8 hours after plating in 96-well assay plates, media was replaced with 100 μL of cyclic peptide dilutions in DMEM with 1% dialyzed FBS. […] Plates were then read in a TECAN Spark 20 M plate reader with 395 nm (RLuc8-coelenterazine 400a) and 510 nm (GFP2) emission filters, at integration times of 1 s per well. Plates were read serially six times, and measurements from the fourth read were used in all analyses. […]

T1 sequence (P63096 whole entry): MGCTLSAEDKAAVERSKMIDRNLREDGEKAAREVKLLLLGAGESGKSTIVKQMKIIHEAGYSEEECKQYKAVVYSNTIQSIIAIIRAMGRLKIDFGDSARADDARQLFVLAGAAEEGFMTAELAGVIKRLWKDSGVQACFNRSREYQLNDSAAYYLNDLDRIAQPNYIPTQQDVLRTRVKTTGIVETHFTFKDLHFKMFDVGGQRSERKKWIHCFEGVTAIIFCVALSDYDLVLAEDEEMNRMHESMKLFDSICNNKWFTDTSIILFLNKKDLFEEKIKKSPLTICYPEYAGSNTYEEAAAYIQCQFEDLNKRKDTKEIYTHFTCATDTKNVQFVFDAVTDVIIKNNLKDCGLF

SMILES: CC[C@H](C)[C@@H]1NC(=O)[C@H](CC(C)C)NC(=O)[C@@H](Cc2ccc(O)cc2)NC(=O)CSC[C@@H](C(=O)NCC(N)=O)NC(=O)[C@@H]2CCCN2C(=O)[C@H](CC(C)C)NC(=O)[C@H](CC(N)=O)NC(=O)[C@H](CC(C)C)NC(=O)[C@H](C)NC(=O)[C@H](Cc2c[nH]c3ccccc23)NC(=O)[C@H](CCC(N)=O)NC(=O)[C@H](CCCNC(=N)N)NC(=O)[C@H](Cc2ccccc2)NC(=O)[C@H]([C@@H](C)O)NC1=O [GD20-F10L] ({CH2CO}-[dY]LITFRQWALNLPCG-NH2; thioether N-14)
- net BRET2 signal change between Gαi and Gβγ after acetylcholine: did not induce a net BRET2 signal change
